We go through nine compounds from patent publication US9809623B2, “α4β7 peptide monomer and dimer antagonists” (Protagonist Therapeutics, Inc., priority 2014, dated 2017).

Each structure is given as a SMILES string. Numbered stars: 1 amine (or outer) side, 2 acyl side, 3 side chain; on linkers, the order of the positions; unused ones are H or OH. Bridge positions count the residues as written; N and C are the ends. Square brackets hold non-standard residues; d marks the D form. Peptide text beside a SMILES is read from it. I, II: the chains in the order shown. 2Nal = N[C@@H](Cc1ccc2ccccc2c1)C(=O)O; Diglycolyl = O=C(COCC(=O)[*:2])[*:1]; NMeR = CN[C@@H](CCCNC(=N)N)C(=O)O; NMeK = CN[C@@H](CCCCN)C(=O)O; Pen = CC(C)(S)[C@H](N)C(=O)O; dNMeK = CN[C@H](CCCCN)C(=O)O

Data set [1] in a line: Plasma Stability Assay. It is filed as in vitro ADME. To be noted: rat, Table 4-C, t1/2. The procedure: 0.5 mL of rat plasma (one tube per peptide, volume depends on how many time points are to be collected, 50 μL per time point) was added to each well of a 96-well polypropylene plate, and the tubes were incubated in a heated water bath, preset to 37° C. with gentle shaking. 1 μL of 10 mM peptide stock solution was added to each tub, and then 200 μL of Acetonitrile w/0.1% Formic Acid was added to each tube (1:4). Samples were collected at the following time points: 0, 10, 30, 45, 60, 120, 180 mins. When all time points were collected, the plate was centrifuged at 5000 rpm for 5 mins. LCM analysis was performed by pipetting 100 μL of each sample to appropriate well of a 96-well deep plate. 100 μL of an internal standard peptide (1 ug/mL) was added in Mobile Phase A to each well. The plate was vortexed and injected

For data set [2], the target named is α4β1 (Homo sapiens, UniProt P05556+P13612). The experiment in a line: α4β1-VCAM Cell Adhesion Assay (Jurkat E6.1 human cells). It is filed as cell-based. On the set-up: host or cells: Jurkat E6.1 human T cells. Conditions: Table 4-B; read-out: Cell Adhesion α4β1 IC50. The gist of the method:
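Jurkat E6.1 cells in DMEM with 0.1% BSA, 10 mM HEPES pH 7 and 1 mM MnCl2 were added (200,000/well) with serially diluted peptides to rh VCAM-1-Fc-coated wells (400 ng/well) for 30-45 min at 37 °C. Adherent cells after washing were quantified by MTT, absorbance 570 nm, with no-cell background subtracted for dose response.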

Data set [3] in a line: Cysteine/Cystine Redox Stability Assay. To be noted: Table 4-C; ORP where half of the oxidized peptide remains. It is filed as physicochemical. The procedure:
Peptides were diluted to 90 μM by adding 4.545 μl of a 10 mM peptide DMSO stock to 495.45 μl of 100 mM Tris-Cl, pH 7.5. Aliquots of […] were transferred to 8 wells down a column of a 96 well plate. 20 μl of 2.5 mM Cystine in 100 mM Tris-Cl, pH 7.5 was added to each well. Cysteine stock solutions in 100 mM Tris-Cl, pH 7.5 were prepared fresh at the following concentrations: 400 mM, 200 mM, 80 mM, 44 mM, 22 mM, 11 mM, 5.5 mM and blank. At time 0, 25 μl of each cysteine stock solution was added to the 55 μl of cystine/peptide solution, and the mixture was incubated at room temperature for 40 min. The samples were quenched by adding 20 μl of 5M acetic acid and analyzed by reverse phase HPLC. The fraction of oxidized peptide was calculated and plotted against the calculated oxidation reduction potential (ORP) as defined by the Nernst equation. The ORP where half of the oxidized peptide remains is shown below.

Chain of α4β1 (P13612 34-1032): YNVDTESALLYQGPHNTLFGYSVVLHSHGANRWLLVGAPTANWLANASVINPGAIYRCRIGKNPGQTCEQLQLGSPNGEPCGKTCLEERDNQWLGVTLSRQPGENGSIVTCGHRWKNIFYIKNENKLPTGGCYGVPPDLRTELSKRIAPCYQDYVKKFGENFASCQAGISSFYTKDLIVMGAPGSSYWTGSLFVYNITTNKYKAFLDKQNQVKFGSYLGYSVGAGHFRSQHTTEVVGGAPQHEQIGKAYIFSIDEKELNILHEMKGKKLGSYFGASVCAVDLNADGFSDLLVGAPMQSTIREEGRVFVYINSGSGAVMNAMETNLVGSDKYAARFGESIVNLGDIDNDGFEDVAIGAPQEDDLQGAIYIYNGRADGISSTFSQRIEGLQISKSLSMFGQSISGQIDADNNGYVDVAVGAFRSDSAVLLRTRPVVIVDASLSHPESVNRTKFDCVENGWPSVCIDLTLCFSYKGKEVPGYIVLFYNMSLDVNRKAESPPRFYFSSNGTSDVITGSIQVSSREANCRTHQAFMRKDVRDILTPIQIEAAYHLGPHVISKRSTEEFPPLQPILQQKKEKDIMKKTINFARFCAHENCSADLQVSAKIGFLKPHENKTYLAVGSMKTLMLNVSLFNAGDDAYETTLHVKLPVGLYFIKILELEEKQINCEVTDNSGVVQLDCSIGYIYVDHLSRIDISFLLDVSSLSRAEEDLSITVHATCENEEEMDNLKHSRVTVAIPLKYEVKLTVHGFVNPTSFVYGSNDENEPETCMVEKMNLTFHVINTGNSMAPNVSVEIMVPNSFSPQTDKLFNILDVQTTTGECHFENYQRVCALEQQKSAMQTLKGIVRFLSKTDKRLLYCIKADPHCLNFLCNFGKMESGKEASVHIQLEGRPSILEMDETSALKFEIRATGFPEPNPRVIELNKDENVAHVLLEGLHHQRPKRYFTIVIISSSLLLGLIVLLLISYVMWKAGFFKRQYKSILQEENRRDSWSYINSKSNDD
Chain of α4β1 (P05556 21-798): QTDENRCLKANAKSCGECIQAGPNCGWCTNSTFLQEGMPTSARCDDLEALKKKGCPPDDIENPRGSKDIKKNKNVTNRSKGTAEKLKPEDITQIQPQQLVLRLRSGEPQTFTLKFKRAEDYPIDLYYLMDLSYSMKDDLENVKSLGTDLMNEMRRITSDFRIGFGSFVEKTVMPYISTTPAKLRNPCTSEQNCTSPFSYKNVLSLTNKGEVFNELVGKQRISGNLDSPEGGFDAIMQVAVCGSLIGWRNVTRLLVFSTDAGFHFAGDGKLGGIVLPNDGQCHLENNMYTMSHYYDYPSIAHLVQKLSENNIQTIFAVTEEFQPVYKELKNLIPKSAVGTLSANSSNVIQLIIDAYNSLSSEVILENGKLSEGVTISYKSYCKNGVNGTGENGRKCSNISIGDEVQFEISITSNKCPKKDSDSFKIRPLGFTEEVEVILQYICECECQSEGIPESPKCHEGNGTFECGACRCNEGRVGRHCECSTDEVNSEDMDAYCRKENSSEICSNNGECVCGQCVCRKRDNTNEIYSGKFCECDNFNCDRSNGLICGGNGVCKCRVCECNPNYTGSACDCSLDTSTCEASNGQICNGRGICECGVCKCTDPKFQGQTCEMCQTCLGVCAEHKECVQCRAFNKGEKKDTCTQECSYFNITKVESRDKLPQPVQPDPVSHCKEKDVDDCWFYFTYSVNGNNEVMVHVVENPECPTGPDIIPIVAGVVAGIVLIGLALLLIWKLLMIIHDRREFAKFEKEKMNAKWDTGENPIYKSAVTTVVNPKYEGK

Usually half-life stands for how long it takes for the measured level to halve. The low end stands for fast loss, the high end for slow loss. For orientation: IC50 means the concentration at which inhibition is half-maximal. For the compound `CC(=O)N[C@H]1CSSC(C)(C)[C@@H](C(=O)N[C@H](CCCCN)C(N)=O)NC(=O)[C@H](CC(C)C)NC(=O)[C@H]([C@@H](C)O)NC(=O)[C@H](CC(=O)O)NC(=O)[C@H](CO)NC(=O)[C@H](CCCNC(=N)N)N(C)C1=O` [compound 202, Ac-C-N-Me-R-S-D-T-L-Pen-k-NH2] (Ac-C[NMeR]SDTL[Pen][dK]-NH2; disulfide 1-7), the half-life at 20 μM in data set [1] was > 6 h. In data set [2], the IC50 was > 100 µM.
`CC(=O)N[C@H]1CSSC(C)(C)[C@@H](C(=O)N[C@@H](Cc2c[nH]c3ccccc23)C(=O)N[C@H](CCCCNC(=O)COCC(=O)NCCCC[C@@H](NC(=O)[C@H](Cc2c[nH]c3ccccc23)NC(=O)[C@H]2NC(=O)[C@H](CC(C)C)NC(=O)[C@H]([C@@H](C)O)NC(=O)[C@H](CC(=O)O)NC(=O)[C@H](CO)NC(=O)[C@H](CCCNC(=N)N)N(C)C(=O)[C@@H](NC(C)=O)CSSC2(C)C)C(N)=O)C(N)=O)NC(=O)[C@H](CC(C)C)NC(=O)[C@H]([C@@H](C)O)NC(=O)[C@H](CC(=O)O)NC(=O)[C@H](CO)NC(=O)[C@H](CCCNC(=N)N)N(C)C1=O` [compound 204, (Ac-C-N-Me-R-S-D-T-L-Pen-W-k-NH2)2-DIG] (I: Ac-C[NMeR]SDTL[Pen]W[dK]-NH2 / II: Ac-C[NMeR]SDTL[Pen]W[dK]-NH2; disulfide I:1-I:7, II:1-II:7 (inferred); linker I:9-II:9 via Diglycolyl (inferred)): the “Cys/CySS (mV)” value in data set [3] is on record as −204 mV. In addition, in data set [1], the half-life at 20 μM is > 6 h. Besides, in data set [2], the IC50 was > 100 µM.
For the compound `CC(=O)N[C@@H]1C(=O)N[C@@H](CCCNC(=N)N)C(=O)N[C@@H](CO)C(=O)N[C@@H](CC(=O)O)C(=O)N[C@@H]([C@@H](C)O)C(=O)N[C@@H](CC(C)C)C(=O)N[C@H](C(=O)N[C@H](CCCCNC(=O)COCC(=O)NCCCC[C@@H](NC(=O)[C@@H]2CSSC(C)(C)[C@H](NC(C)=O)C(=O)N[C@@H](CCCNC(=N)N)C(=O)N[C@@H](CO)C(=O)N[C@@H](CC(=O)O)C(=O)N[C@@H]([C@@H](C)O)C(=O)N[C@@H](CC(C)C)C(=O)N2)C(N)=O)C(N)=O)CSSC1(C)C` [compound 207, (Ac-Pen-R-S-D-T-L-C-k-NH2)2-DIG] (I: Ac-[Pen]RSDTLC[dK]-NH2 / II: Ac-[Pen]RSDTLC[dK]-NH2; disulfide I:1-I:7, II:1-II:7 (inferred); linker I:8-II:8 via Diglycolyl (inferred)), the “Cys/CySS (mV)” value in data set [3] is recorded as −173 mV.
Same read-out and setting: next, `CC(=O)N[C@@H]1C(=O)N(C)[C@@H](CCCNC(=N)N)C(=O)N[C@@H](CO)C(=O)N[C@@H](CC(=O)O)C(=O)N[C@@H]([C@@H](C)O)C(=O)N[C@@H](CC(C)C)C(=O)N[C@H](C(=O)N[C@@H](Cc2c[nH]c3ccccc23)C(=O)N[C@H](CCCCN)C(N)=O)C(C)(C)SSC1(C)C` [compound 208, Ac-Pen-N-Me-R-S-D-T-L-Pen-W-k-NH2] (Ac-[Pen][NMeR]SDTL[Pen]W[dK]-NH2; disulfide 1-7): <−300 mV.
For `CC(=O)N[C@@H]1C(=O)N(C)[C@@H](CCCNC(=N)N)C(=O)N[C@@H](CO)C(=O)N[C@@H](CC(=O)O)C(=O)N[C@@H]([C@@H](C)O)C(=O)N[C@@H](CC(C)C)C(=O)N[C@H](C(=O)N[C@@H](Cc2c[nH]c3ccccc23)C(=O)N[C@H](CCCCNC(=O)COCC(=O)NCCCC[C@@H](NC(=O)[C@H](Cc2c[nH]c3ccccc23)NC(=O)[C@H]2NC(=O)[C@H](CC(C)C)NC(=O)[C@H]([C@@H](C)O)NC(=O)[C@H](CC(=O)O)NC(=O)[C@H](CO)NC(=O)[C@H](CCCNC(=N)N)N(C)C(=O)[C@@H](NC(C)=O)C(C)(C)SSC2(C)C)C(N)=O)C(N)=O)C(C)(C)SSC1(C)C` [compound 209, (Ac-Pen-N-Me-R-S-D-T-L-Pen-W-k-NH2)2-DIG] (I: Ac-[Pen][NMeR]SDTL[Pen]W[dK]-NH2 / II: Ac-[Pen][NMeR]SDTL[Pen]W[dK]-NH2; disulfide I:1-I:7, II:1-II:7 (inferred); linker I:9-II:9 via Diglycolyl (inferred)), the “Cys/CySS (mV)” value in data set [3] is <−300 mV. The half-life at 20 μM in data set [1] was > 3 h. Moreover, in data set [2], the 50% inhibitory concentration (IC50) was > 100 µM.
Turning to `CC(=O)N[C@@H]1C(=O)N(C)[C@@H](CCCNC(=N)N)C(=O)N[C@@H](CO)C(=O)N[C@@H](CC(=O)O)C(=O)N[C@@H]([C@@H](C)O)C(=O)N[C@@H](CC(C)C)C(=O)N[C@H](C(=O)N[C@@H](Cc2ccc3ccccc3c2)C(=O)N[C@@H](CCC(=O)O)C(=O)N[C@H](CCCCN)C(N)=O)C(C)(C)SSC1(C)C` [compound 210, Ac-Pen-N-Me-R-S-D-T-L-Pen-2-Nal-E-k-NH2] (Ac-[Pen][NMeR]SDTL[Pen][2Nal]E[dK]-NH2; disulfide 1-7), the “Cys/CySS (mV)” value in data set [3] is reported as <−300 mV. Also, in data set [2], the half-inhibitory concentration (IC50) is > 100 µM.
On to `CC(=O)N[C@@H]1C(=O)N(C)[C@@H](CCCNC(=N)N)C(=O)N[C@@H](CO)C(=O)N[C@@H](CC(=O)O)C(=O)N[C@@H]([C@@H](C)O)C(=O)N[C@@H](CC(C)C)C(=O)N[C@H](C(=O)N[C@@H](Cc2c[nH]c3ccccc23)C(=O)N[C@@H](CCC(=O)O)C(=O)N(C)[C@H](CCCCNC(=O)COCC(=O)NCCCC[C@H](C(N)=O)N(C)C(=O)[C@H](CCC(=O)O)NC(=O)[C@H](Cc2c[nH]c3ccccc23)NC(=O)[C@H]2NC(=O)[C@H](CC(C)C)NC(=O)[C@H]([C@@H](C)O)NC(=O)[C@H](CC(=O)O)NC(=O)[C@H](CO)NC(=O)[C@H](CCCNC(=N)N)N(C)C(=O)[C@@H](NC(C)=O)C(C)(C)SSC2(C)C)C(N)=O)C(C)(C)SSC1(C)C` [compound 214, [Ac-Pen-(N-Me-Arg)-Ser-Asp-Thr-Leu-Pen-Trp-Glu-(N-Me-D-Lys)-NH2]2-DIG] (I: Ac-[Pen][NMeR]SDTL[Pen]WE[dNMeK]-NH2 / II: Ac-[Pen][NMeR]SDTL[Pen]WE[dNMeK]-NH2; disulfide I:1-I:7, II:1-II:7 (inferred); linker I:10-II:10 via Diglycolyl (inferred)), for which the half-life at 20 μM in data set [1] was > 6 h.
On the same count and under the same terms, next, `CC(=O)N[C@@H]1C(=O)N(C)[C@@H](CCCNC(=N)N)C(=O)N[C@@H](CO)C(=O)N[C@@H](CC(=O)O)C(=O)N[C@@H]([C@@H](C)O)C(=O)N[C@@H](CC(C)C)C(=O)N[C@H](C(=O)N[C@@H](Cc2c[nH]c3ccccc23)C(=O)N[C@@H](CCC(=O)O)C(=O)N(C)[C@@H](CCCCNC(=O)COCC(=O)NCCCC[C@@H](C(N)=O)N(C)C(=O)[C@H](CCC(=O)O)NC(=O)[C@H](Cc2c[nH]c3ccccc23)NC(=O)[C@H]2NC(=O)[C@H](CC(C)C)NC(=O)[C@H]([C@@H](C)O)NC(=O)[C@H](CC(=O)O)NC(=O)[C@H](CO)NC(=O)[C@H](CCCNC(=N)N)N(C)C(=O)[C@@H](NC(C)=O)C(C)(C)SSC2(C)C)C(N)=O)C(C)(C)SSC1(C)C` [compound 215, [Ac-Pen-(N-Me-Arg)-Ser-Asp-Thr-Leu-Pen-Trp-Glu-(N-Me-Lys)-NH2]2-DIG] (I: Ac-[Pen][NMeR]SDTL[Pen]WE[NMeK]-NH2 / II: Ac-[Pen][NMeR]SDTL[Pen]WE[NMeK]-NH2; disulfide I:1-I:7, II:1-II:7 (inferred); linker I:10-II:10 via Diglycolyl (inferred)): > 6 h.
Regarding `CC(=O)N[C@@H]1C(=O)N(C)[C@@H](CCCNC(=N)N)C(=O)N[C@@H](CO)C(=O)N[C@@H](CC(=O)O)C(=O)N[C@@H]([C@@H](C)O)C(=O)N[C@@H](CC(C)C)C(=O)N[C@H](C(=O)N[C@@H](Cc2c[nH]c3ccccc23)C(=O)N[C@H](CCC(=O)O)C(=O)N[C@H](CCCCNC(=O)COCC(=O)NCCCC[C@@H](NC(=O)[C@@H](CCC(=O)O)NC(=O)[C@H](Cc2c[nH]c3ccccc23)NC(=O)[C@H]2NC(=O)[C@H](CC(C)C)NC(=O)[C@H]([C@@H](C)O)NC(=O)[C@H](CC(=O)O)NC(=O)[C@H](CO)NC(=O)[C@H](CCCNC(=N)N)N(C)C(=O)[C@@H](NC(C)=O)C(C)(C)SSC2(C)C)C(=O)O)C(=O)O)C(C)(C)SSC1(C)C` [compound 216, (Ac-Pen-N-Me-R-S-D-T-L-Pen-W-e-k-OH)2-DIG] (I: Ac-[Pen][NMeR]SDTL[Pen]W[dE][dK]-OH / II: Ac-[Pen][NMeR]SDTL[Pen]W[dE][dK]-OH; disulfide I:1-I:7, II:1-II:7 (inferred); linker I:10-II:10 via Diglycolyl (inferred)), the half-life at 20 μM in data set [1] was > 3 h. In addition, in data set [2], the IC50 is > 100 µM.
